Data from US20240000811A1, “INOSITOL HEXAKISPHOSPHATE ANALOGUES FOR TREATMENT OF CALCIFICATION ASSOCIATED KIDNEY DISEASES” (INOSITEC AG, priority 2020, published 2024).

Key:
[1] = In-solution screening: CaP precipitation and aggregation in artificial renal tubular fluid (RTF); settings: 9 mM phosphate, 8 mM calcium, 4 h, RT
Experimental: An artificial renal tubular fluid (RTF) with a final composition of 0.05 mM oxalate, 0.005 mM sulphate, 408 mM sodium, 424 mM chloride, 0.26 mM potassium, 4 mM magnesium and 0.2 mM citrate in double distilled water was prepared according to a literature report (Fasano, J. M. et al., Kidney Int. 59, 169-178. DOI: 10.1046/j.1523-1755.2001.00477.x, 2001). The solution was filtered with a 0.45-μm syringe filter. Twenty mM Bis-Tris buffer was added to the reported protocol to ensure pH stability throughout experiments and pH was set to 7.2. The artificial RTF was stored at room temperature for up to four months. Stock solutions of 0.25 M phosphate and 1 M calcium were prepared in double distilled water and were stored separately at −20° C.
Twenty-x final concentration phosphate, 20× final concentration calcium and 10× final concentration compound dilutions were prepared in RTF. Assay mixture consisting of 80% RTF, 10% compound dilution, 5% phosphate dilution and 5% calcium dilution was prepared in Eppendorf tubes as follows. RTF (320 μL) was mixed with 20 μL phosphate dilution (final concentration of 9 mM), 40 μL compound dilution and 20 μL calcium dilution (final concentration of 8 mM). The assay mixture was vortexed after adding each component and 380 μL of the mixture were immediately added to 8-well glass bottom slides and incubated for 4 hat RT. CaP precipitation was assessed using a Leica DM 6000B microscope (Leica Microsystems, Wetzlar, Germany) in brightfield mode. For quantification 3 wells/condition with 3-4 images/well were imaged with a 40× objective. The total area covered with CaP deposits in percentage of the field of view and the mean size of CaP aggregates were determined.
In a first step, the influence of selected IP6 analogues (FIG. 3) on CaP precipitation and growth was assessed in vitro using artificial renal tubular fluid (RTF) (Table 1). In a previous study, the inventors investigated CaP protein particle formation in serum. However, an important difference to cardiovascular calcification lies in the extremely low protein content of the renal tubular fluid vs. the high abundance of proteins in blood, which can stabilize amorphous particles. Two cut-offs were chosen for assessing efficacy. First, complete inhibition was defined as a >90% reduction of detected CaP precipitates compared to the control sample without compound.

[2] = tested on: RPTEC/TERT 1 human proximal tubule cells; assay: RNA sequencing of RPTEC treated with Ca/P and compound; format: cell-based; settings: 50 μM compound
Experimental: RNA sequencing Cells were cultured as described in the imaging assay and treated with a medium control (ProxUp basal medium containing 1/1 mM Ca/P), 5/7 mM Ca/P, 5/7 mM Ca/P in medium containing 50 μM (OEG2)2-IP4 or 50 μM (OEG2)2-IP4 in medium for 24 h. Total RNA was extracted using the RNeasy kit (Quiagen) according to the manufacturer's instructions. Three wells per sample group were prepared and total RNA extracted of those 3 wells pooled. mRNA was purified and RNAseq library was prepared using the TrueSeq RNA kit (Illumina). Sequencing was performed on a Novaseq 6000 (Illumina). Reads were aligned to the human reference genome GRCh38.p10 using the STAR tool (https://github.com/alexdobin/STAR) and transcripts quantified using the Kallisto program (42). Ensembl release 91 was used for the gene model definitions. […] The heatmap was plotted using R software. Overrepresentation analysis was performed on Webgestalt.org (v2019) (43), using differentially expressed genes with p≤0.01, log 2fold change≥0.5. Differential expressed genes were compared to the gene ontology—biological process functional database and as a reference set the human genome—protein coding was used. The weighted set cover of the top 30 enriched categories was plotted. For comparison of expression levels of the selected genes, the fragments per kilobase of exon model per million reads mapped (FPKM) were used. Three independent experiments were performed. RNA sequencing raw data is available on the EMBL Nucleotide Sequence Database (ENA) under the accession number PRJEB38397.

[3] = tested on: C57BL/6 male mice on high phosphate diet; assay: Mouse model of high phosphate-induced kidney damage; format: in vivo; settings: 100 mg/kg s.c. 3 times/week
Experimental: C57BL/6 male mice (12 weeks of age) were placed on either regular diet containing 0.35% inorganic phosphate or high phosphate diet containing 2.0% inorganic phosphate. These mice were subcutaneously injected with either (OEG2)2-IP4 (100 mg/kg) or vehicle (distilled water) three times a week and then sacrificed at 20 weeks of age to harvest their blood and kidneys. Some mice were transferred individually to metabolic cages to collect urine for 3 days before sacrifice. Serum FGF23 levels were measured using intact FGF23 ELISA (Kinos) according to the manufacturers' protocols. Serum and urine levels of phosphate were measured using Fuji Dri-Chem slides and the analyzer (Dri-Chem NX500V, Fuji, Tokyo, Japan). […] Quantitative RT-PCR reactions were performed using 20 ng of cDNA incubated with 410 nM of each primer and 6 μL of SYBR Green PCR Master mix (Toyoba, Osaka, Japan THUNDERBIRD SYBR qPCR Mix QPS-201) in a total volume of 12 μl. […] Relative mRNA levels were calculated by the comparative threshold cycle method using cyclophilin as an internal control. […] The collagen volume fraction (the ratio of the Sirius Red-positive area to the total area) was quantified using an image analysis software (IMAGE PRO 9.32, Medica Cybernetics, Rockville, MD, USA) as previously described (Hirano, Y. Kurosu et al., FEBS Open Bio. 10, 894-903. DOI:10.1002/2211-5463.1284, 2020). […]

[4] = previous study (Kletzmayr et al. 2020); cited from earlier work
[5] = reported, Schantl et al. 2020; cited from earlier work

## COCCOCCO[C@@H]1C(OP(=O)(O)O)[C@H](OCCOCCOC)[C@@H](OP(=O)(O)O)C(OP(=O)(O)O)[C@H]1OP(=O)(O)O (stereo partly shown) [(OEG2)2-IP4]
[1]
  effect on CaP precipitation / crystallization (in words): did not further increase the inhibitory activity
[2]; 5/7 mM Ca/P, 24 h
  Ca/P-induced change in gene expression profile: prevented
[2]; fold change ≥1.5 and p≤0.05
  differentially expressed genes, Ca/P+compound vs. compound only: 77
  differentially expressed genes, Ca/P+compound vs. negative ctrl: 76
  differentially expressed genes, Ca/P+compound vs. positive ctrl: 2437
  differentially expressed genes, compound only vs. positive ctrl: 2935
[3]
  collagen volume fraction (fibrosis), Picro-Sirius red staining of the kidneys, vs vehicle: reduced
  kidney damage and fibrosis markers (Spp1, IL36a, Ngal, MMP3, Col1a1 mRNA in kidney) vs vehicle control: significantly reduced
[4]
  efficacy on CaOx crystallization in solution: limited efficacy
[5]
  pharmacokinetic profile: favorable
